Reference: ChEMBL document CHEMBL6178015, “Discovery of a Novel Serine-Targeting Covalent Inhibitor against HCES2A for Treating Drug-induced Diarrhea and Ulcerative Colitis” (J Med Chem, 2025)
Each block holds one compound with its values, some of them ahead of it. Active and inactive are the calls of the source. No cut-off for these calls is given here.

Tests used:
Homo sapiens [1] = species on record: Homo sapiens; assay: Selectivity index, ratio of IC50 for inhibition of human CES1A to IC50 for inhibition of human CES2A
[2] = Inhibition of human CES1A using NLMe as substrate preincubated for 3 mins followed by substrate addition and measured after 20 mins by chemiluminescence analysis
[3] = Inhibition of human CES2A using fluorescein diacetate as substrate preincubated for 3 mins followed by substrate addition and measured after 30 mins by fluorescence microplate reader
Mus musculus [4] = assay: Reversal of irinotecan-induced gut toxicity in C57BL/6J mouse bearing MC38 cells assessed as effect on tumor volume at 30 to 60 mg/kg,po administered daily and measured after 14 days; assay type: functional, organism-based; settings: dose 30-60 mg/kg, time 14.0 day
Mus musculus [5] = assay: Antiinflammatory activity against DSS-induced ulcerative colitis mouse model assessed as restoration of TNF-alpha levels in colon tissues at 30 to 60 mg/kg,IG administered once daily 7 days by ELISA; assay type: functional, organism-based; settings: dose 30-60 mg/kg, time 7.0 day
Mus musculus [6] = assay: Antiinflammatory activity against DSS-induced ulcerative colitis mouse model assessed as restoration of IL-1beta levels in colon tissues at 30 to 60 mg/kg,IG administered once daily 7 days by ELISA; assay type: functional, organism-based; settings: dose 30-60 mg/kg, time 7.0 day
Mus musculus [7] = assay: Reversal of irinotecan-induced gut toxicity in C57BL/6J mouse bearing MC38 cells assessed as weight recovery at 30 to 60 mg/kg,po administered daily and measured after 14 days; assay type: functional, organism-based; settings: dose 30-60 mg/kg, time 14.0 day
Mus musculus [8] = assay: Reversal of irinotecan-induced gut toxicity in C57BL/6J mouse bearing MC38 cells assessed as amelioration of inflammatory cell infiltration loss at 30 to 60 mg/kg,po administered daily and measured after 14 days by H and E staining based analysis; assay type: functional, organism-based; settings: dose 30-60 mg/kg, time 14.0 day
Mus musculus [9] = assay: Antiinflammatory activity against DSS-induced ulcerative colitis mouse model assessed as inhibition of colon contracture at 30 to 60 mg/kg,IG administered once daily 7 days; assay type: functional, organism-based; settings: dose 30-60 mg/kg, time 7.0 day
Mus musculus [10] = assay: Antiinflammatory activity against DSS-induced ulcerative colitis mouse model assessed as reduction in inflammatory infiltration in lamina propria at 30 to 60 mg/kg,IG administered once daily 7 days by H and E staining based analysis; assay type: functional, organism-based; settings: dose 30-60 mg/kg, time 7.0 day
Homo sapiens [11] = species on record: Homo sapiens; assay: Potency index, ratio of LC-20W IC50 to test compound IC50 for inhibition of human CES2A using fluorescein diacetate as substrate
Mus musculus [12] = assay: Antiinflammatory activity against DSS-induced ulcerative colitis mouse model assessed as restoration of colon histology at 700 mg/kg,IG administered once daily 7 days by AB-PAS staining based analysis; assay type: functional, organism-based; settings: time 7.0 day
[13] = Irreversible inhibition of human CES2A using fluorescein diacetate as substrate preincubated for 33 mins followed by substrate addition by fluorescence microplate reader
Mus musculus [14] = assay: Reversal of irinotecan-induced gut toxicity in C57BL/6J mouse bearing MC38 cells assessed as increase in ZO-1 expression level in colon tissues at 30 to 60 mg/kg,po administered daily and measured after 14 days by immunohistochemical analysis; assay type: functional, organism-based; settings: dose 30-60 mg/kg, time 14.0 day
Mus musculus [15] = assay: Reversal of irinotecan-induced gut toxicity in C57BL/6J mouse bearing MC38 cells assessed as restoration of TNF-alpha levels in colon tissues at 30 to 60 mg/kg,po administered daily and measured after 14 days by ELISA; assay type: functional, organism-based; settings: dose 30-60 mg/kg, time 14.0 day
Mus musculus [16] = assay: Antiinflammatory activity against DSS-induced ulcerative colitis mouse model assessed as upregulation of claudin-1 expression in colon tissues at 700 mg/kg,IG administered once daily 7 days by immunohistochemical analysis; assay type: functional, organism-based; settings: time 7.0 day
Mus musculus [17] = assay: Antiinflammatory activity against DSS-induced ulcerative colitis mouse model assessed as upregulation of occludin expression in colon tissues at 700 mg/kg,IG administered once daily 7 days by immunohistochemical analysis; assay type: functional, organism-based; settings: time 7.0 day
Mus musculus [18] = assay: Reversal of irinotecan-induced gut toxicity in C57BL/6J mouse bearing MC38 cells assessed as change in tumor size at 30 to 60 mg/kg,po administered daily and measured after 14 days; assay type: functional, organism-based; settings: dose 30-60 mg/kg, time 14.0 day
hERG (KCNH2) = hERG (KCNH2) (Homo sapiens, UniProt Q12809); assay: Inhibition of hERG expressed in HEK293 cells at 10 uM relative to control; assay type: toxicity, cell-based; settings: HEK293 cells that express hERG
Sequence of hERG (KCNH2) (Q12809 whole entry): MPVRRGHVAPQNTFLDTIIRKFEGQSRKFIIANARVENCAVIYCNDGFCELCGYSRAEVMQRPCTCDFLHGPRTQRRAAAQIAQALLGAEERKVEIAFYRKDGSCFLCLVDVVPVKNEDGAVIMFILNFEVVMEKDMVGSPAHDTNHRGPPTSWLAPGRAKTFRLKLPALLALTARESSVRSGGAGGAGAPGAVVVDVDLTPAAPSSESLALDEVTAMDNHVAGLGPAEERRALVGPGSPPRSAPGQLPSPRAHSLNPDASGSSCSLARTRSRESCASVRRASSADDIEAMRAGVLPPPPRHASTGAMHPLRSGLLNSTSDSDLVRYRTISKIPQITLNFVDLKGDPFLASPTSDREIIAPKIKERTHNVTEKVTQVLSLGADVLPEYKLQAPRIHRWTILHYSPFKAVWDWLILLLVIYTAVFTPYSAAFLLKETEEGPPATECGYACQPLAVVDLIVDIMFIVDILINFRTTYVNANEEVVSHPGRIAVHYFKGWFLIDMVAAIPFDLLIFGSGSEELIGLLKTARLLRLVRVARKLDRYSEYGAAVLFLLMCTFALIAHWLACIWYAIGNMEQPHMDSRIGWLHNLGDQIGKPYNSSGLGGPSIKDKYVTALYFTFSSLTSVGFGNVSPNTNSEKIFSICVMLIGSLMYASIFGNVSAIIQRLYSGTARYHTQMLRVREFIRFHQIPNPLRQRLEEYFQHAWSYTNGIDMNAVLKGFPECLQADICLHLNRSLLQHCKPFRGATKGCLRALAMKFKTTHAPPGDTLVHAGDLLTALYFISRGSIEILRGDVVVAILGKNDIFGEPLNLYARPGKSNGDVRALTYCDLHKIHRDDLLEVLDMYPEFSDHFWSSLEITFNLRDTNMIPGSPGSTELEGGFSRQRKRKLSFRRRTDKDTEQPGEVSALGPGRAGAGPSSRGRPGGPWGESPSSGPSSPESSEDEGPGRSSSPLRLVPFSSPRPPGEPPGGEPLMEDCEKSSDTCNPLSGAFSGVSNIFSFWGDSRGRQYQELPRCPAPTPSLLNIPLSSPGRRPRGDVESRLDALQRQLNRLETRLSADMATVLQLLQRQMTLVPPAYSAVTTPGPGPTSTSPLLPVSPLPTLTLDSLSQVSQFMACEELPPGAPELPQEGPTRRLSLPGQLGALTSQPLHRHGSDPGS

Mus musculus [19] = assay: Reversal of irinotecan-induced gut toxicity in C57BL/6J mouse bearing MC38 cells assessed as amelioration of epithelial crypts loss at 30 to 60 mg/kg,po administered daily and measured after 14 days by H and E staining based analysis; assay type: functional, organism-based; settings: dose 30-60 mg/kg, time 14.0 day
Mus musculus [20] = assay: Antiinflammatory activity against DSS-induced ulcerative colitis mouse model assessed as decrease in DAI score at 30 to 60 mg/kg,IG administered once daily 7 days; assay type: functional, organism-based; settings: dose 30-60 mg/kg, time 7.0 day
[21] = target: Voltage-gated inwardly rectifying potassium channel KCNH2 (Homo sapiens, UniProt Q12809); assay: Inhibition of hERG expressed in HEK293 cells; assay type: toxicity, cell-based
Sequence of Voltage-gated inwardly rectifying potassium channel KCNH2 (Q12809 whole entry): as above

Mus musculus [22] = assay: Antiinflammatory activity against DSS-induced ulcerative colitis mouse model assessed as alleviation in body weight loss at 30 to 60 mg/kg,IG administered once daily 7 days; assay type: functional, organism-based; settings: dose 30-60 mg/kg, time 7.0 day
[23] = Irreversible inhibition of human CES2A using fluorescein diacetate as substrate preincubated for 3 mins followed by substrate addition by fluorescence microplate reader
HepG2 = assay: Inhibition of human CES2A in HepG2 cells assessed as decrease in green fluorescence at 5 to 60 nM incubated for 1 hrs by NCEN and Hoechst 33342 staining based assay; assay type: cell-based; settings: dose 5-60 nM
Mus musculus [24] = assay: Reversal of irinotecan-induced gut toxicity in C57BL/6J mouse bearing MC38 cells assessed as restoration of IL-6 levels in colon tissues at 30 to 60 mg/kg,po administered daily and measured after 14 days by ELISA; assay type: functional, organism-based; settings: dose 30-60 mg/kg, time 14.0 day
Mus musculus [25] = assay: Reversal of irinotecan-induced gut toxicity in C57BL/6J mouse bearing MC38 cells assessed as amelioration of goblet cell apoptosis at 30 to 60 mg/kg,po administered daily and measured after 14 days by H and E staining based analysis; assay type: functional, organism-based; settings: dose 30-60 mg/kg, time 14.0 day
Mus musculus [26] = assay: Antiinflammatory activity against DSS-induced ulcerative colitis mouse model assessed as upregulation of ZO-1 expression in colon tissues at 700 mg/kg,IG administered once daily 7 days by immunohistochemical analysis; assay type: functional, organism-based; settings: time 7.0 day
Mus musculus [27] = assay: Antiinflammatory activity against DSS-induced ulcerative colitis mouse model assessed as restoration of IL-6 levels in colon tissues at 30 to 60 mg/kg,IG administered once daily 7 days by ELISA; assay type: functional, organism-based; settings: dose 30-60 mg/kg, time 7.0 day
Homo sapiens [28] = species on record: Homo sapiens; assay: Irreversible inhibition of human CES2A assessed as inactivation constant incubated for 5 to 30 mins; settings: time 5-30 min
[29] = Irreversible inhibition of human CES2A assessed as inhibition constant incubated for 5 to 30 mins
Mus musculus [30] = assay: Reversal of irinotecan-induced gut toxicity in C57BL/6J mouse bearing MC38 cells assessed as reduction in colon shortening at 30 to 60 mg/kg,po administered daily and measured after 14 days; assay type: functional, organism-based; settings: dose 30-60 mg/kg, time 14.0 day
Mus musculus [31] = assay: Antiinflammatory activity against DSS-induced ulcerative colitis mouse model assessed as preservation of colonic mucosal structure at 30 to 60 mg/kg,IG administered once daily 7 days by H and E staining based analysis; assay type: functional, organism-based; settings: dose 30-60 mg/kg, time 7.0 day
Mus musculus [32] = assay: Reversal of irinotecan-induced gut toxicity in C57BL/6J mouse bearing MC38 cells assessed as effect on tumor weight at 30 to 60 mg/kg,po administered daily and measured after 14 days; assay type: functional, organism-based; settings: dose 30-60 mg/kg, time 14.0 day
[33] = Inhibition of human CES2A in HepG2 cells incubated for 1 hrs by NCEN and Hoechst 33342 staining based assay; assay type: cell-based
Mus musculus [34] = assay: Reversal of irinotecan-induced gut toxicity in C57BL/6J mouse bearing MC38 cells assessed as reduction in diarrhea at 30 to 60 mg/kg,po administered daily and measured after 14 days; assay type: functional, organism-based; settings: dose 30-60 mg/kg, time 14.0 day
Homo sapiens [35] = species on record: Homo sapiens; assay: Irreversible inhibition of human CES2A at 0.02 nM preincubated for 33 mins and measured after 8 hrs dialysis by fluorescence microplate reader; settings: time 513.0 min
Mus musculus [36] = assay: Reversal of irinotecan-induced gut toxicity in C57BL/6J mouse bearing MC38 cells assessed as increase in claudin-1 expression level in colon tissues at 30 to 60 mg/kg,po administered daily and measured after 14 days by immunohistochemical analysis; assay type: functional, organism-based; settings: dose 30-60 mg/kg, time 14.0 day
Mus musculus [37] = assay: Reversal of irinotecan-induced gut toxicity in C57BL/6J mouse bearing MC38 cells assessed as restoration of IL-1beta levels in colon tissues at 30 to 60 mg/kg,po administered daily and measured after 14 days by ELISA; assay type: functional, organism-based; settings: dose 30-60 mg/kg, time 14.0 day
Mus musculus [38] = assay: Antiinflammatory activity against DSS-induced ulcerative colitis mouse model assessed as reduction in crypt destruction in colon tissues at 30 to 60 mg/kg,IG administered once daily 7 days by H and E staining based analysis; assay type: functional, organism-based; settings: dose 30-60 mg/kg, time 7.0 day

Structure (SMILES): CCCCCCCCC(=O)c1cccc2oc(-c3cc(OC)ccc3OC(=O)N(C)C)cc12
Ratio IC50 (Homo sapiens [1]): 1260
IC50 [2]: 239 nM
IC50 [3]: 0.189 nM

Ratio IC50 (Homo sapiens [1]): 59
IC50 [2]: 6.95 nM
IC50 [13]: 0.028 nM
IC50 [23]: 0.12 nM
IC50 [3]: 0.118 nM
Kinact (Homo sapiens [28]): 0.052 min⁻¹
Ki [29]: 0.43 nM
IC50 [33]: 19.6 nM
inhibition (Homo sapiens [35]): Active
Structure (SMILES): CCCCCCCCC(=O)c1cccc2oc(-c3cc(OC)ccc3OC(=O)N3CCCC3)cc12
Activity (Mus musculus [4]): Active
Activity (Mus musculus [5]): Active
Activity (Mus musculus [6]): Active
Activity (Mus musculus [7]): Active
Activity (Mus musculus [8]): Active
Activity (Mus musculus [9]): Active
Activity (Mus musculus [10]): Active
Ratio IC50 (Homo sapiens [11]): 13
Activity (Mus musculus [12]): Active
Activity (Mus musculus [14]): Active
Activity (Mus musculus [15]): Active
Activity (Mus musculus [16]): Active
Activity (Mus musculus [17]): Active
Activity (Mus musculus [18]): inactive
inhibition at 10 µM (hERG (KCNH2)): 14.6%
Activity (Mus musculus [19]): Active
Activity (Mus musculus [20]): Active
IC50 [21]: > 10 µM
Activity (Mus musculus [22]): Active
inhibition (HepG2): Active
Activity (Mus musculus [24]): Active
Activity (Mus musculus [25]): Active
Activity (Mus musculus [26]): Active
Activity (Mus musculus [27]): Active
Activity (Mus musculus [30]): Active
Activity (Mus musculus [31]): Active
Activity (Mus musculus [32]): inactive
Activity (Mus musculus [34]): Active
Activity (Mus musculus [36]): Active
Activity (Mus musculus [37]): Active
Activity (Mus musculus [38]): Active

IC50 [3]: > 10000 nM
Structure (SMILES): CCCCCCOC(=O)Nc1ccccc1-c1cc2c(C(=O)CCCCCC)cccc2o1

Structure (SMILES): CCCCCCCCC(=O)c1cccc2oc(-c3cc(OC)ccc3OC(=O)N(C)CC)cc12
Ratio IC50 (Homo sapiens [1]): 6.4
IC50 [2]: 4 nM
IC50 [3]: 0.625 nM

IC50 [3]: 4260 nM
Structure (SMILES): CCCCCCC(=O)c1cccc2oc(-c3cc(C)ccc3NC(=O)OCC(CC)CCCC)cc12 (configuration not stated)

IC50 [3]: 362 nM
Structure (SMILES): CCCCCCOC(=O)Nc1ccc(C)cc1-c1cc2c(C(=O)CCCCCC)cccc2o1

Ratio IC50 (Homo sapiens [1]): > 9600
IC50 [2]: > 10000 nM
IC50 [3]: 1.04 nM
Structure (SMILES): CCCCCCC(=O)c1cccc2oc(-c3cc(C)ccc3NC(=O)OCC(C)C)cc12

IC50 [3]: 11100 nM
Structure (SMILES): CCCC(=O)c1cccc2oc(-c3ccccc3N)cc12

IC50 [3]: 736 nM
Structure (SMILES): CCCCCCCCC(=O)c1cccc2oc(-c3cc(C)ccc3N)cc12

Structure (SMILES): CN(C)C(=O)C(CCN1CCC(O)(c2ccc(Cl)cc2)CC1)(c1ccccc1)c1ccccc1 [LOPERAMIDE]
IC50 [3]: 351 nM

IC50 [3]: 1260 nM
Structure (SMILES): CCCCCCC(=O)c1cccc2oc(-c3ccccc3NC(=O)OCCCC)cc12

Ratio IC50 (Homo sapiens [1]): > 176
IC50 [2]: > 10000 nM
IC50 [3]: 56.6 nM
Structure (SMILES): CCCCCCC(=O)c1cccc2oc(-c3ccccc3NC(=O)OCCCl)cc12

IC50 [3]: 1970 nM
Structure (SMILES): CCCCCCC(=O)c1cccc2oc(-c3cc(OC)ccc3N)cc12

IC50 [3]: 383 nM
Structure (SMILES): C=CCOC(=O)Nc1ccc(C)cc1-c1cc2c(C(=O)CCCCCC)cccc2o1

IC50 [3]: 1.55 nM
Structure (SMILES): CCCCCCC(=O)c1c(C)ccc2oc(-c3cc(OC)ccc3O)cc12
